Test results taken from ChEMBL document CHEMBL3351591, “Synthetic (+)-terrein suppresses interleukin-6/soluble interleukin-6 receptor induced-secretion of vascular endothelial growth factor in human gingival fibroblasts” (Bioorg Med Chem, 2014).
The source made the active and inactive calls. The rule behind the calls is not given here.

What was measured:
[1] = tested on: HGF; experiment: Inhibition of IL-6/soluble IL-6 receptor signaling-induced JNK1/2 phosphorylation in HGF cells pre-incubated at 10 to 20 uM for before IL-6/soluble IL-6 receptor stimulation for 5 mins by Western blotting method; assay type: cell-based; conditions: Homo sapiens
[2] = Cytotoxicity against HGF cells assessed as cell proliferation at <10 uM incubated for 24 hrs by MTT assay; assay type: cell-based; conditions: human
[3] = tested on: HGF; experiment: Inhibition of IL-6/soluble IL-6 receptor signaling-induced ERK1/2 phosphorylation in HGF cells pre-incubated at 10 to 20 uM for before IL-6/soluble IL-6 receptor stimulation for 5 mins by Western blotting method; assay type: cell-based; conditions: Homo sapiens
[4] = Cytotoxicity against HGF cells assessed as reduction in cell proliferation at >50 uM incubated for 24 hrs by MTT assay; assay type: cell-based; conditions: human
[5] = tested on: HGF; experiment: Inhibition of endogenous VEGF secretion in HGF cells at 0.01 to 10 uM by ELISA method; assay type: functional, cell-based; conditions: Homo sapiens
[6] = tested on: HGF; experiment: Inhibition of IL-6/soluble IL-6 receptor signaling-induced STAT3 phosphorylation in HGF cells pre-incubated at 10 to 20 uM for before IL-6/soluble IL-6 receptor stimulation for 5 mins by Western blotting method; assay type: cell-based; conditions: Homo sapiens
[7] = tested on: HGF; experiment: Inhibition of IL-6/soluble IL-6 receptor signaling-induced VEGF secretion in HGF cells pre-incubated for 30 mins before IL-6/soluble IL-6 receptor stimulation for 24 hrs by ELISA method; assay type: cell-based; conditions: Homo sapiens

## C/C=C/C1=CC(=O)[C@H](O)[C@H]1O
[1]
  inhibition: Active
[2]
  Activity: Non-toxic
[3]
  inhibition: Active
[4]
  Activity: Toxic
[5]
  inhibition: inactive
[6]
  inhibition: Active
[7]
  inhibition: Dose-dependent effect
